Consider 17 compounds from patent publication US7189851B2, “Condensed heterocyclic compounds as calcitonin agonists” (SmithKline Beecham Corporation, priority 2002, dated 2007).

The target in this assay is T1, human calcitonin-2 receptor (hCT2R) (Homo sapiens, UniProt P30988).
T1 construct: expressed in transfected cells; host or cells: Chinese hamster ovary (CHO) cells co-transfected with a 6CRE-luciferase reporter; receptor cDNA cloned from the MCF7 cell line
T1 sequence (P30988 25-474): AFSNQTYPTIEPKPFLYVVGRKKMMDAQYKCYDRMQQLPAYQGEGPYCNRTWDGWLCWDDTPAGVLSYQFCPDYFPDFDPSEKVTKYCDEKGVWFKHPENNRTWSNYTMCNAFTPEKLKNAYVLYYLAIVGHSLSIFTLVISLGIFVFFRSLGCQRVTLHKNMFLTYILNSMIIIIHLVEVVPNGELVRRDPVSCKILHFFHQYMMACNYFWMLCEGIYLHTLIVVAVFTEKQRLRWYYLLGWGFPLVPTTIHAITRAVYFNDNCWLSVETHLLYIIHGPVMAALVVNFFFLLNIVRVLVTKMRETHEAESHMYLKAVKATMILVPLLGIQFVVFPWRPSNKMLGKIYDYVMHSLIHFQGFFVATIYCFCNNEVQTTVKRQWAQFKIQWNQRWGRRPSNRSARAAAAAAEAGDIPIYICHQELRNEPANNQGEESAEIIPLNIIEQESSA
The assay can be described thus: HCT2R CRE-luc reporter assay. The class given is cell-based. The settings on record: agonist activity; CHO-6CRE-luciferase cells co-transfected with hCT2R. Here is the method:
The compounds of the present invention elicit important and measurable pharmacological responses. As is to be expected, the efficacy of any compound will vary depending upon the particular assay and the particular compound tested.
All recombinant cell line human calcitonin receptor assays were carried out with the human receptor corresponding to GeneBank Accession Number X69920, [See: Molecular Pharmacology 46 (2):246–255, 1994, Cloning and characterization of an abundant subtype of the human calcitonin receptor] cloned from the MCF7 cell line (American Type Tissue Collection, Manassas, Va., USA, Catalog # HTB-22). Human calcitonin receptor (hCT2R) was cloned as a HindIII fragment into plasmid BS SKII. Chinese hamster ovary cells were co-transfected with a 6CRE-luciferase reporter system and hCTR2. HEK cells were transfected with hCTR2.
CHO-6CRE-luciferase cells with or without co-expressed hCTR2 were grown in suspension in commercially available cell culture medium supplemented with 2 mM L-glutamine and 5% fetal bovine serum (FBS). Sixteen hours before each assay, cells were collected and resuspended at 1,000,000 cells/ml in media without FBS. Cells were cultured in spinner flasks at 37° C. in an atmosphere of 5% CO2. At the time of the assay, cells were pelleted by centrifugation and resuspended in media without FBS at a concentration of 250,000 cells/ml. The cell suspension was pipetted into black 96-well microtiter plates (25,000 cells/well) containing test compounds. After a four-hour incubation at 37° C., media was aspirated, followed by addition of 50 microliters of LucLite and PBS (1:1) containing 1 mM CaCl2 and 1 mM MgCl2. The plates were sealed and incubated for 20 minutes in the dark. Luminescent responses were measured using a Packard TopCount.
Structure activity studies were performed on CHO-6CRE-luciferase cells with or without co-transfected hCT2R. Forty-eight hours before each assay, cells were removed with trypsin and plated in 96-well microtiter plates at a concentration of 25–100,000 cells/well. Sixteen hours before each assay, FBS-containing media was removed and replaced with media without FBS. Compounds were added and incubated for four hours at 37° C. After incubation, media was aspirated and 50 microliters of LucLite in PBS (1:1) containing 1 mM CaCl2 and 1 mM MgCl2 were added to each well. Plates were sealed and incubated for 20 minutes in the dark before quantification of luminescence on a Packard TopCount.
Concentration-response curves were calculated and potencies were reported as the concentration of compounds producing half-maximal responses (EC50) or the negative log of the concentration of compounds producing half-maximal responses (pEC50).
For `CCOC(=O)c1c(CCc2ccc(OC)cc2)nc2c(c1-c1ccc(C(=O)NCc3ccco3)cc1)C(=O)N1CCC[C@H]21` [Example 1, Ethyl (9aR)-4-(4-{[(2-furylmethyl)amino]carbonyl}phenyl)-2-[2-(4-methoxyphenyl)ethyl]-5-oxo-7,8,9,9a-tetrahydro-5H-pyrido[2,3-α]pyrrolizine-3-carboxylate], the EC50 was 10 to 100 nM.

Turning to `CCOC(=O)c1c(CCc2ccc(C(F)(F)F)cc2)nc2c(c1C1CC1C(=O)NCc1ccccc1)C(=O)N1CCC[C@@H]21` (stereo partly drawn) [Example 3, Ethyl (9aS)-4-{2-[(benzylamino)carbonyl]cyclopropyl}-5-oxo-2-{2-[4-(trifluoromethyl)phenyl]ethyl}-7,8,9,9a-tetrahydro-5H-pyrido[2,3-a]pyrrolizine-3-carboxylate], the EC50 fell in the range of 100 to 1000 nM.

Take `CCOC(=O)c1c(Cc2ccc(F)cc2F)nc2c(c1-c1ccc(C(=O)NCc3ccco3)cc1)C(=O)N1CCC[C@@H]21` [Example 6, Ethyl (9aS)-2-(2,4-difluorobenzyl)-4-(4-{[(2-furylmethyl)amino]carbonyl}phenyl)-5-oxo-7,8,9,9a-tetrahydro-5H-pyrido[2,3-α]pyrrolizine-3-carboxylate]: the EC50 lay within 10 to 100 nM.

For the compound `CCOC(=O)c1c(CCc2ccc(F)cc2)nc2c(c1-c1ccc(C(=O)NCc3ccco3)cc1)c(=O)n1n2CCC1` [Example 8, Ethyl 2-[2-(4-fluorophenyl)ethyl]-4-(4-{[(2-furylmethyl)amino]carbonyl}phenyl)-5-oxo-8,9-dihydro-5H,7H-pyrazolo[1′,2′:1,2]pyrazolo[3,4-b]pyridine-3-carboxylate], the EC50 is not above 10 nM.

With `CCOC(=O)c1c(CCc2ccc(F)cc2)nc2c(c1-c1ccc(C(=O)NCc3ccco3)s1)c(=O)n1n2CCC1` [Example 9, Ethyl 2-[2-(4-fluorophenyl)ethyl]-4-(5-{[(2-furylmethyl)amino]carbonyl}-2-thienyl)-5-oxo-8,9-dihydro-5H,7H-pyrazolo[1′,2′:1,2]pyrazolo[3,4-b]pyridine-3-carboxyl], the EC50 is not above 10 nM.

As to `CCOC(=O)c1c(C(F)(F)F)nc2c(c1-c1ccc(C(=O)NCc3cccc(F)c3)cc1)c(=O)n1n2CCC1` [Example 10, Ethyl 4-(4-{[(3-fluorobenzyl)amino]carbonyl}phenyl)-5-oxo-2-(trifluoromethyl)-8,9-dihydro-5H,7H-pyrazolo[1′,2′:1,2]pyrazolo[3,4-b]pyridine-3-carboxylate], the EC50 was not below 1000 nM.

Consider `O=C(NCc1ccco1)c1ccc(-c2cc(CCc3ccc(C(F)(F)F)cc3)nc3c2C(=O)N2CCC[C@@H]32)cc1` [Example 14, 4-((9aS)-5-oxo-2-{2-[4-(trifluromethyl)phenyl]ethyl}-7,8,9,9a-tetrahydro-5H-pyrido[2,3-a]pyrrolizin-4-yl)-N-(2-furylmethyl)benzamide], for which the EC50 is 100 to 1000 nM.

With `CCOC(=O)c1c(CCc2ccc(F)cc2)nc2c(c1-c1cc(C(=O)NC3CCc4ccccc43)cs1)C(=O)N1CCC[C@@H]21` (stereo partly drawn) [Example 15, Ethyl(9aS)-4-{4-[(2,3-dihydro-1H-inden-1-ylamino)carbonyl]-2-thieny}-2-[2-(4-fluorophenyl)ethyl]-5-oxo-7,8,9,9a-tetrahydro-5H-pyrido[2,3-a]pyrrolizine-3-carboxylate], the concentration giving a half-maximal response (EC50) was not above 10 nM.

`CCOC(=O)c1c(CCc2ccc(F)cc2)nc2c(c1-c1cc(C(=O)NC3CCc4ccccc43)co1)C(=O)N1CCC[C@@H]21` (stereo partly drawn) [Example 17, Ethyl(9aS)-4-{4-[(2,3-dihydro-1H-inden-1-ylamino)carbonyl]-2-furyl}-2-[2-(4-fluorophenyl)ethyl]-5-oxo-7,8,9,9a-tetrahydro-5H-pyrido[2,3-a]pyrrolizine-3-carboxylate]: the EC50 is not above 10 nM.

For `CCOC(=O)c1c(CCc2ccc(F)cc2)nc2c(c1-c1ccc(C(=O)N[C@@H]3CCc4ccccc43)s1)C(=O)N1CCC[C@@H]21` [Example 18, Ethyl(9aS)-4-(5-{[(1R)-2,3-dihydro-1H-inden-1-ylamino]carbonyl}-2-thienyl)-2-[2-(4-fluorophenyl)ethyl]-5-oxo-7,8,9,9a-tetrahydro-5H-pyrido[2,3-a]pyrrolizine-3-carboxylate], the EC50 is not above 10 nM.

`CCOC(=O)c1c(Cc2ccc(F)cc2)nc2c(c1-c1ncc(C(=O)N[C@@H]3CCc4ccccc43)s1)C(=O)N1CCC[C@@H]21` [Example 19, Ethyl (9aS)-4-(5-{[(1R)-2,3-dihydro-1H-inden-1-ylamino]carbonyl}-1,3-thiazol-2-yl)-2-(4-fluorobenzyl)-5-oxo-7,8,9,9a-tetrahydro-5H-pyrido[2,3-a]pyrrolizine-3-carboxylate]: the EC50 is not above 10 nM.

Regarding `O=C(N[C@@H]1CCc2ccccc21)c1ccc(-c2cc(Cc3ccc(F)cc3)nc3c2C(=O)N2CCC[C@@H]32)cc1` [Example 20, 4-[(9aS)-2-(4-fluorobenzyl)-5-oxo-7,8,9,9a-tetrahydro-5H-pyrido[2,3-a]pyrrolizin-4-yl]-N-[(1R)-2,3-dihdro-1H-inden-1-yl]benzamide], the half-maximal effective concentration (EC50) lay within 10 to 100 nM.

`CCOC(=O)c1c(CCc2ccc(C(F)(F)F)cc2)nc2c(c1-c1nc(C(=O)N[C@@H]3CCc4ccccc43)co1)c(=O)n1n2CCC1` [Example 21, Ethyl 4-(4-{[(1R)-2,3-dihydro-1H-inden-1-ylamino]carbonyl}-1,3-oxazol-2-yl)-5-oxo-2-{2-[4-(trifluoromethyl)phenyl]ethyl}-8,9-dihydro-5H,7H-pyrazolo[1′, 2′:1,2]pyrazolo[3,4-b]pyridine-3-carboxylate]: the EC50 fell in the range of 10 to 100 nM.

`CCOC(=O)c1c(Cc2ccc(F)cc2F)nc2c(c1-c1cnc(C(=O)N[C@@H]3CCc4ccccc43)cn1)C(=O)N1CCC[C@@H]21` [Example 22, Ethyl(9aS)-2-(2,4-difluorobenzyl)-4-(5-{[(1R)-2,3-dihydro-1H-inden-1-ylamino]carbonyl}-2-pyrazinyl)-5-oxo-7,8,9,9a-tetrahydro-5H-pyrido[2,3-a]pyrrolizine-3-carboxylate]: the EC50 lay within 10 to 100 nM.

As to `O=C(NC1CCc2ccccc21)c1ccc(-c2c(NC(=O)C(F)(F)F)c(Cc3ccc(F)cc3F)nc3c2C(=O)N2CCCC32)cc1` [Example 23, 4-{(9aS)-2-(2,4-difluorobenzyl)-5-oxo-3-[(trifluoroacetyl)amino]-7,8,9,9a-tetrahydro-5H-pyrido[2,3-α]pyrrolizin-4-yl}-N-[(1R)-2,3-dihydro-1H-inden-1-yl]benzamide], the EC50 was in the range of 10 to 100 nM.

`O=C(NCc1ccco1)c1ccc(-c2c(NC(=O)C3CCCC3)c(CCc3ccc(C(F)(F)F)cc3)nc3c2C(=O)N2CCC[C@@H]32)cc1` [Example 24, 4-((9aS)-3-[(Cyclopentylcarbonyl)amino]-5-oxo-2-{2-[4-(trifluoromethyl)phenyl]ethyl}-7,8,9,9a-tetrahydro-5H-pyrido[2,3-a]pyrrolizin-4-yl)-N-(2-furylmethyl)benzamide]: the EC50 was 100 to 1000 nM.

Regarding `CCC(=O)Nc1c(CCc2ccc(C(F)(F)F)cc2)nc2c(c1-c1ccc(C(=O)NCc3ccco3)cc1)C(=O)N1CCC[C@@H]21` [Example 25, 4-((9aS)-3-[(Ethylcarbonyl)amino]-5-oxo-2-{2-[4-(trifluoromethyl)phenyl]ethyl}-7,8,9,9a-tetrahydro-5H-pyrido[2,3-α]pyrrolizin-4-yl)-N-(2-furylmethyl)benzamide], the EC50 fell in the range of 100 to 1000 nM.

One may read the EC50 as the concentration that produces a half-maximal response.
